# Measurements from patent US11203600B2 (Denali Therapeutics Inc., priority 2017, dated 2021).
# Molecular target: GST-hRIPK1 (8-327) (Homo sapiens (Human), UniProt Q13546)
# Assay: Fluorescent Polarization Binding (FP Binding) assay, RIPK1
# Conditions: GST-hRIPK1 (8-327), mean of at least two independent experiments
# In short: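 Binding by fluorescence polarisation at RT: 10 nM baculovirus-expressed GST-hRIPK1 (8-327) and 5 nM fluorescent ligand, 30 min, in 50 mM HEPES pH 7.5, 50 mM MgCl2, 0.02% CHAPS, 1% DMSO. FP read at ex 531/em 595 nm. IC50 from normalised percent inhibition, mean of ≥2 experiments.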
# Sequence of GST-hRIPK1 (8-327) (Q13546 8-327): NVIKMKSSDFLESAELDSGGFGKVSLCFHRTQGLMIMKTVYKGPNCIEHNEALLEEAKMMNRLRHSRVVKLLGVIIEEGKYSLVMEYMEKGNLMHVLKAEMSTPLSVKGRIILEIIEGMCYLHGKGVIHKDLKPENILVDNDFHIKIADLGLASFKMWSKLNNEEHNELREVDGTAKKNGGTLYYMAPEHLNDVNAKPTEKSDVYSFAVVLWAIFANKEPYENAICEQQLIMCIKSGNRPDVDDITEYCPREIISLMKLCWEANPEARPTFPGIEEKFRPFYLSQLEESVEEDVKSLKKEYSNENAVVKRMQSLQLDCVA
row,SMILES,IC50 [nM]
1,"COc1nc(N2CCC(OC)(C(=O)N3CCOc4c(C#N)cncc4C3)CC2)c(F)cc1F [Example 289, 4-[1-(3,5-difluoro-6-methoxy-2-pyridyl)-4-methoxy-piperidine-4-carbonyl]-3,5-dihydro-2H-pyrido [3,4-f][1,4]oxazepine-9-carbonitrile]",0.1 to 100
2,"CC(C)(C(=O)N1CCOc2c(C#N)cncc2C1)[C@H]1C[C@H](Cn2nccn2)C1 [Example 290, trans-4-[2-methyl-2-[3-(triazol-2-ylmethyl)cyclobutyl]propanoyl]-3,5-dihydro-2H-pyrido [3,4-f][1,4]oxazepine-9-carbonitrile]",100 to 1000
3,"CC(C)(C(=O)N1CCOc2c(C#N)cncc2C1)[C@H]1C[C@@H](Cn2nccn2)C1 [Example 291, cis-4-[2-methyl-2-[3-(triazol-2-ylmethyl)cyclobutyl]propanoyl]-3,5-dihydro-2H-pyrido[3,4-f][1,4]oxazepine-9-carbonitrile]",100 to 1000
4,"CC(C)(C(=O)N1CCOc2c(C#N)cncc2C1)[C@H]1C[C@H](Cn2ccnn2)C1 [Example 292, trans-4-[2-methyl-2-[3-(triazol-1-ylmethyl)cyclobutyl]propanoyl]-3,5-dihydro-2H-pyrido [3,4-f][1,4]oxazepine-9-carbonitrile]",> 1000
5,"CC(C)(C(=O)N1CCOc2c(C#N)cncc2C1)[C@H]1C[C@@H](Cn2ccnn2)C1 [Example 293, cis-4-[2-methyl-2-[3-(triazol-1-ylmethyl)cyclobutyl]propanoyl]-3,5-dihydro-2H-pyrido [3,4-f][1,4]oxazepine-9-carbonitrile]",> 1000
6,"N#Cc1cncc2c1OCCN(C(=O)C1(F)CCN(c3ncc(F)n4ncnc34)CC1)C2 [Example 294, 4-[4-fluoro-1-(5-fluoro-[1,2,4]triazolo[1,5-a]pyrazin-8-yl)piperidine-4-carbonyl]-3,5-dihydro-2H-pyrido [3,4-f][1,4]oxazepine-9-carbonitrile]",0.1 to 100
7,"COC1CN(c2ncc(F)cn2)CCC1C(=O)N1CCOc2c(C#N)cncc2C1 (stereo not shown) [Example 309, 4-[1-(5-fluoropyrimidin-2-yl)-3-methoxy-piperidine-4-carbonyl]-3,5-dihydro-2H-pyrido[3,4-f][1,4]oxazepine-9-carbonitrile]",100 to 1000
